In article PMC8508903, “Novel Dipyridinium Lipophile-Based Ionic Liquids Tethering Hydrazone Linkage: Design, Synthesis and Antitumorigenic Study” (International Journal of Molecular Sciences, 2021) one finds IC50 data, which are given here for 10 molecules.

The structures appear in SMILES notation. Structures can show the parent of a compound that is named as a salt.

One assay deals with A549 lung cancer cells. The assay can be described thus: MTT cell viability assay, A549. In kind it is cell-based, human. To be noted: mean of three independent experiments (N = 9). As for the experimental part:
(§1) To evaluate the effect of the examined series on the viability of different lung cancer cells, MTT assay was conducted after exposing A549, H1299, and H661 cell lines to increasing concentrations of each compound for 48 h. […] Table 2 and Supplementary Figure S92 (see Supplementary Materials) show the 50% inhibitory concentration (IC50) values for the compounds under investigation in A549, H1299, and H661 lung cancer cells.
(§2) The human lung cancer cell lines A549, H1299 and H661 and the normal cells dermal fibroblasts were obtained from the American Type Culture Collection ATCC. Cells were cultured as a monolayer at seeding density of 8 × 10^3 cells per well in high glucose Dulbecco’s modified eagle medium (DMEM) (Invitrogen, USA), as previously described. The in vitro assessment of the antitumorigenic activities related to the studied compounds was undertaken using the 3-(4,5-dimethylthiazol-2yl)-2,5-diphenyl tetrazolium bromide (MTT) colorimetric assay, as previously reported. The compounds under investigation were tested in three triplicates of each concentration in three independent assays for a total of nine replicates. Both positive (cisplatin) and negative (untreated culture) controls were applied under the same experimental conditions. Cells were cultured for 48 h at 37 °C in a 5% CO2 incubator. Afterwards, MTT assay was carried out where viable cell count was determined based on the amount of formazan crystals, as verified by the absorbance at 490 nm.
(§3) Data was analyzed by Graphpad Prism software (Graphpad Software Inc. Jolla, CA, USA) for the determination of IC50 value. All data were expressed as the average of triplicate experiments.

A further assay concerns H1299 lung cancer cells. The assay can be described thus: MTT cell viability assay, H1299. The assay is classed as cell-based, human. The following applies: 48 h, mean of three independent experiments (N = 9). The procedure: as §1, §2, §3
In a further assay the test system is H661 lung cancer cells. As to the kind of experiment: MTT cell viability assay, H661. The assay is classed as cell-based, human. To be noted: 48 h, mean of three independent experiments (N = 9). The procedure: as §1, §2, §3
In a further assay the test system is human dermal fibroblasts. The assay can be described thus: MTT cell viability assay, normal dermal fibroblasts. In kind it is cell-based. To be noted: 48 h, noncancerous human dermal fibroblasts. As for the experimental part: as §1, §2, §3

In the case of `N.N.[Cl][Pt][Cl]` [Cisplatin, cisplatin, reference compound], the IC50 in the assay with A549 lung cancer cells (48 h) was 23 µM; with H1299 lung cancer cells, 18 µM; in the assay with H661 lung cancer cells, 32 µM; in the assay on human dermal fibroblasts, more than 100 µM.

On to `CCCCCCCCCCCCCCCCCC[n+]1ccc(C(=O)NN=Cc2ccc[n+](CCCCCCCCCCCCCCCCCC)c2)cc1` [Compound 35, 1-Octadecyl-3-((2-(1-octadecylpyridin-1-ium-4-carbonyl)hydrazono)methyl)pyridin-1-ium Tetrafluoroborate], for which the IC50 is 421 µM in the assay on A549 lung cancer cells (48 h), 399 µM with H1299 lung cancer cells, 382 µM in the assay with H661 lung cancer cells and more than 1000 µM in the assay on human dermal fibroblasts.

Regarding `CCCCCCCCC[n+]1ccc(C(=O)NN=Cc2ccc[n+](CCCCCCCCC)c2)cc1` [Compound 21, 1-Nonyl-3-((2-(1-nonylpyridin-1-ium-4-carbonyl)hydrazono)methyl)pyridin-1-ium Trifluoroacetate], the half-maximal inhibitory concentration (IC50) is 33.5 µM with A549 lung cancer cells (48 h), 28 µM with H1299 lung cancer cells, 19.4 µM in the assay on H661 lung cancer cells and more than 300 µM in the assay with human dermal fibroblasts.

With `CCCCCCCCC[n+]1ccc(C(=O)NN=Cc2ccc[n+](CCCCCCCCC)c2)cc1` [Compound 20, 1-Nonyl-3-((2-(1-nonylpyridin-1-ium-4-carbonyl)hydrazono)methyl)pyridin-1-ium Tetrafluoroborate], the IC50 with A549 lung cancer cells (Homo sapiens, A549, 48 h) is 31.4 µM; in the assay with H1299 lung cancer cells it was 32.6 µM; with H661 lung cancer cells it was 33 µM; in the assay on human dermal fibroblasts (Homo sapiens, Fibroblast) it was more than 300 µM.

As to `CCCCCCCCCCCCCCCCCC[n+]1ccc(C(=O)NN=Cc2ccc[n+](CCCCCCCCCCCCCCCCCC)c2)cc1` [Compound 36, 1-Octadecyl-3-((2-(1-octadecylpyridin-1-ium-4-carbonyl)hydrazono)methyl)pyridin-1-ium Trifluoroacetate], the IC50 with A549 lung cancer cells (48 h) is 920 µM; with H1299 lung cancer cells it was 947 µM; in the assay with H661 lung cancer cells, 904 µM; with human dermal fibroblasts, more than 1000 µM.

On to `CCCCCCCCCCCCCC[n+]1ccc(C(=O)NN=Cc2ccc[n+](CCCCCCCCCCCCCC)c2)cc1` [Compound 30, 1-Tetradecyl-3-((2-(1-tetradecylpyridin-1-ium-4-carbonyl)hydrazono)methyl)pyridin-1-ium Trifluoroacetate], for which the IC50 with A549 lung cancer cells (48 h) is 38.6 µM; in the assay on H1299 lung cancer cells, 38.5 µM; in the assay on H661 lung cancer cells, 41.9 µM; in the assay on human dermal fibroblasts it was more than 300 µM.

On to `CCCCCCCCCCCCCCCC[n+]1ccc(C(=O)NN=Cc2ccc[n+](CCCCCCCCCCCCCCCC)c2)cc1` [Compound 32, 1-Hexadecyl-3-((2-(1-hexadecylpyridin-1-ium-4-carbonyl)hydrazono)methyl)pyridin-1-ium Tetrafluoroborate], for which the IC50 was 114 µM in the assay with A549 lung cancer cells (48 h); 108 µM in the assay on H1299 lung cancer cells; 104 µM in the assay with H661 lung cancer cells; more than 300 µM in the assay on human dermal fibroblasts (Homo sapiens, Fibroblast).

`CCCCCCCCCCCCCC[n+]1ccc(C(=O)NN=Cc2ccc[n+](CCCCCCCCCCCCCC)c2)cc1` [Compound 13, 1-Tetradecyl-3-((2-(1-tetradecylpyridin-1-ium-4-carbonyl)hydrazono)methyl)pyridin-1-ium Iodide]: the IC50 was 36.8 µM with A549 lung cancer cells (48 h), 38 µM in the assay with H1299 lung cancer cells, 38.2 µM with H661 lung cancer cells and more than 300 µM in the assay on human dermal fibroblasts.

For `CCCCCCCCCCCCCCCC[n+]1ccc(C(=O)NN=Cc2ccc[n+](CCCCCCCCCCCCCCCC)c2)cc1` [Compound 33, 1-Hexadecyl-3-((2-(1-hexadecylpyridin-1-ium-4-carbonyl)hydrazono)methyl)pyridin-1-ium Trifluoroacetate], the IC50 is 87.8 µM in the assay with A549 lung cancer cells (48 h), 92.3 µM in the assay with H1299 lung cancer cells, 100 µM in the assay on H661 lung cancer cells and more than 300 µM with human dermal fibroblasts.

In the case of `CCCCCCCCCC[n+]1ccc(C(=O)NN=Cc2ccc[n+](CCCCCCCCCC)c2)cc1` [Compound 24, 1-Decyl-3-((2-(1-decylpyridin-1-ium-4-carbonyl)hydrazono)methyl)pyridin-1-ium Trifluoroacetate], the IC50 in the assay with A549 lung cancer cells (48 h) was 20 µM; with H1299 lung cancer cells, 19 µM; with H661 lung cancer cells it was 18.1 µM; with human dermal fibroblasts, more than 300 µM.
